Measured values from patent US20230002344A1, “NOVEL BENZOTHIOPHENE DERIVATIVES AND USE THEREOF FOR STIMULATING MITOCHONDRIAL TURNOVER” (NIBN, The National Institute For Biotechnology In The Negev …, priority 2019, published 2023).
“Also recorded” adds a separate entry of the source.

Experiments:
Format in all cases: cell-based
[1] = system: INS1 cells; assay: Mitochondrial mass by Mitotracker green staining; conditions: 18 h; SPB08007 25 μM, MWP00839 11.5 μM, Urolithin A 25 μM
Method: The Z-score depicts the standard deviation from the neutral control (DMSO). In FIG. 3C: Mitochondrial mass in INS1 cells treated for 18 hours with either DMSO (control), Urolithin A (25 μM), SPB08007 (“SBP”) (25 μM) or MWP00839 (“MWP”) (11.5 μM) and then stained with Mitotracker green (200 nM). In FIG. 3D: SPB08007 and MWP00839 increase the number of mitochondria inside autolysosomes. INS1 cells expressing mCherry-GFP were exposed to SPB08007, MWP00839, and DMSO for 8 hours and then subjected to confocal microscopy. The area of red fluorescence in the taken images was determined. N=3+/−SEM pANOVA<0.05. FIG. 3E provides representative images. […] FIG. 3F provides the Western blot against LC3 in INS1 cells treated with the compounds in presence or absence of bafilomycin (+b) for the last 2 hours.
Mitotracker Green Fluorescence, Anion Radical Superoxide and Mitochondrial Membrane Potential. INS1 cells were seeded into wells of a 96-wells glass bottom cell culture plate (CELLSTAR) at a density of 2*10^4 cells/well. To assess mitochondrial clearance, a pulse-chase experiment was performed. […] Results are expressed as the percentage of MTG fluorescence relative to MTG fluorescence of the “time 0” control. […] Integrated fluorescence of each field was analyzed in Image J after background subtraction and threshold (IsoData) application. Twenty-four fields of each condition were analyzed in each experiment.

[2] = system: mouse islets; assay: Glucose stimulation insulin secretion assay; conditions: 25 uM 24 h pretreatment
Method: FIG. 12A show mouse islets were pre-incubated with SPB08007 (25 uM) or DMSO (0.1%) for 24 h. Islets were adapted to KRB media containing glucose 2 mM for 1 h, followed by media exchange containing glucose 2 mM (basal) or 12 mM (stimulated). After 1 h, Insulin released in the media was measured by ELISA. […] N=3. *p<0.05 vs. DMSO basal. ***p<0.001 vs. DMSO.
Islet isolation. Islets were isolated from DBA/2 mice. Briefly, pancreata of anesthetized mice were infused with collagenase (1 mg/ml, type XI, Sigma-Aldrich, Rehovot, Israel), excised, and incubated for 30 min at 37° C. The digested tissue was vortexed, filtered and washed in HBSS (Biological Industries) containing 0.5% BSA (Sigma). The pellet was resuspended in RPMI medium 1640 supplemented with 10% FCS, 50 units/ml penicillin, and 50 μg/ml streptomycin (all from Biological Industries). Islets were collected on a 100-μm cell strainer (BD, Falcon) and hand-picked using stereoscope (Zeiss, Oberkochen, Germany)
Glucose stimulation insulin secretion assay. After 24-hour pretreatment with SPB08007, 25 uM, islets were washed twice with PBS (Biological Industries, Bet-Haemek, Israel). For basal insulin secretion, the islets were incubated with Krebs-Ringer Bicarbonate (KRB) buffer supplemented with 0.5% BSA and 2 mM glucose for 30 min at 37 deg. C and 5% CO2. For stimulated insulin secretion, the buffer was replaced with KRB buffer supplemented with 0.5% BSA and 16 mM glucose and the islets were incubated for additional 60 min. Supernatant insulin content was measured by ELISA (Merck Millipore, Burlington, Mass.).

[3] = system: INS1 cells; assay: Cell viability (XTT); conditions: 25 μM, 24 hours exposure
Method: Cell Viability. Viability was measured using an XTT kit (Biological Industries), as recommended by the manufacturer. 30,000 cells were seeded in a flat 96-well plate. To each well 100 μl of growth media was added. The cells were incubated in a CO2 incubator at 37° C. In most cases, cells can be used to assay proliferation after 24-96 hours. Each test included a blank containing complete medium without cells as a background control. To prepare a reaction solution sufficient for one plate (96 wells), 0.1 ml activation solution was added to 5 ml XTT reagent. 50 μl of the reaction solution was added to each well and the plate was incubated in an incubator for 2-24 hours. Following the incubation, the plate was shacked gently to evenly distribute the dye in the wells and the absorbance of the samples was measured against a background control with a spectrophotometer (ELISA reader) at a wavelength of 480 nm. To determine non-specific readings we used a wavelength of 650 nm which we subtracted from the 480 nm measurement. The average absorbance of the blank control wells was finally subtracted from that of the other wells.
For all the experiment concerning cell viability, a kit of XTT reagent was used (Biological Industries).

[4] = system: INS1 cells; assay: Anion radical superoxide (Mitosox); conditions: 25 uM
Method: INS1 cells were treated for 24 h with SPB08007 (25 uM) or DMSO (0.1%). Mitochondrial membrane potential was analyzed cell by cell through TMRE staining corrected by Mitotracker Green (MTG). Cells were imaged using a 100× Plan Neofluar objective and the Airyscan module of a Zeiss LSM880 confocal microscope. […] Each experiment was repeated 2 times, 59-85 cells of each group were analyzed in each experiment for TMRE/MTG, and 48 fields were analyzed in each experiment for Mitosox analysis. *p<0.05 vs. DMSO; ***p<0.05 vs. DMSO and SPB08007.
Mitotracker Green Fluorescence, Anion Radical Superoxide and Mitochondrial Membrane Potential. INS1 cells were seeded into wells of a 96-wells glass bottom cell culture plate (CELLSTAR) at a density of 2*10^4 cells/well. To assess mitochondrial clearance, a pulse-chase experiment was performed. Briefly, cells were stained with MTG (Molecular Probes) 500 nM for 30 min, washed, and treated with (25 uM) or DMSO 0.1%. After 18 h, cells were imaged using a 40× lens of a Perkin Elmer Operetta high-content imaging system microscope. Results are expressed as the percentage of MTG fluorescence relative to MTG fluorescence of the “time 0” control. […] Integrated fluorescence of each field was analyzed in Image J after background subtraction and threshold (IsoData) application. Twenty-four fields of each condition were analyzed in each experiment.

With `CC(=O)N/C(=C\c1sc2ccccc2c1C)C(=O)O` [SPB08007] the “mitochondrial mass (mitotracker green fluorescence)” value [1] was “reduction in fluorescence”, the “insulin secretion fold (glucose stimulated/basal)” value [2] was “higher secretion fold” and the basal insulin secretion ([2]; 2 mM glucose) was “significantly reduced”. For the same compound, the glucose-stimulated insulin secretion ([2]; 16 mM of glucose) was “maintaining the levels”, the “viability (XTT)” value [3] was “did not affect viability; also recorded: comparable to DMSO control” and the “anion radical superoxide formation (Mitosox)” value [4] was “unaffected”.
